Source: patent US20250066339A1, “HETEROCYCLE-SUBSTITUTED AROMATIC COMPOUND, METHOD FOR PREPARING SAME, HERBICIDAL COMPOSITION, AND USE THEREOF” (QINGDAO KINGAGROOT CHEMICAL COMPOUND CO., LTD., priority 2022, published 2025)

Key:
Assay in all cases: Post-emergence test on weeds
Format in all cases: in vivo
Parameters in all cases: key: Level 10: completely dead; Level 9: growth control rate greater than or equal to 90% and less than 100%; Level 8: growth control rate greater than or equal to 80% and less than 90%; Level 7: growth control rate greater than or equal to 70% and less than 80%; Level 6: growth control rate greater than or equal to 60% and less than 70%; Level 5: growth control rate greater than or equal to 50% and less than 60%; Level 4: growth control rate greater than or equal to 40% and less than 50%; Level 3: growth control rate greater than or equal to 30% and less than 40%; Level 2: growth control rate greater than or equal to 20% and less than 30%; Level 1: growth control rate less than 20%; Level 0: no effect
Settings in all cases: 3 weeks after application, fresh weight control rate
Veronica polita = tested on: Veronica polita
Source text: (§1) The activity level criteria for plant damage (i.e., growth control rate) are as follows: • Level 10: completely dead; • Level 9: growth control rate greater than or equal to 90% and less than 100%; • Level 8: growth control rate greater than or equal to 80% and less than 90%; • Level 7: growth control rate greater than or equal to 70% and less than 80%; • Level 6: growth control rate greater than or equal to 60% and less than 70%; • Level 5: growth control rate greater than or equal to 50% and less than 60%; • Level 4: growth control rate greater than or equal to 40% and less than 50%; • Level 3: growth control rate greater than or equal to 30% and less than 40%; • Level 2: growth control rate greater than or equal to 20% and less than 30%; • Level 1: growth control rate less than 20%; • Level 0: no effect.
(§2) The above growth control rates are fresh weight control rates.
(§3) Monocotyledonous and dicotyledonous weed seeds (Descurainia sophia, Capsella bursa-pastoris, Abutilon theophrasti, Galium spurium, Stellaria media, Lithospermum arvense, Rorippa indica, Alopecurus aequalis, Alopecurus japonicus, Eleusine indica, Beckmannia syzigachne, Sclerochloa dura, Erigeron canadensis, Phleum paniculatum, Veronica polita, Bromus japonicus, Aegilops tauschii, Phalaris arundinacea, Amaranthus retroflexus, Chenopodium, Commelina communis, Cichorium endivia, Convolvulus arvensis, Cirsium arvense, Solanum nigrum, Acalypha australis, Digitaria sanguinalis, Echinochloa crus-galli, Setaria viridis, Setaria pumila, Leptochloa chinensis, Monochoria vaginalis, Sagittaria trifolia, Schoenoplectiella juncoides, Cyperus rotundus, Cyperus iria, Cyperus difformis, Fimbristylis, Portulaca oleracea, Xanthium sibiricum, Ipomoea nil, Eschenbachia japonica, etc.) and major crop seeds (wheat, maize, paddy rice, soybean, cotton, oilseed rape, millet, sorghum, potato, sesame, castor plant, etc.) were placed in plastic pots filled with soil and then covered with 0.5-2 cm of soil to allow them to grow in a favorable greenhouse environment. Two weeks after sowing, the test plants were treated at the stage of 2-3 leaves. The test compounds of the present invention were individually dissolved with acetone, then added with Tween® 80, with 1.5 L/ha of methyl oleate emulsifiable concentrate as a synergist, diluted into solutions of certain concentrations using certain amount of water, and sprayed to the plants using a spray tower. After drug application, the experimental results on weeds were collected after 3 weeks of cultivation in a greenhouse. The compounds were applied at 500, 250, 125, 60, 15, and 7.5 g a.i./ha in triplicate, and the results were averaged.

Amaranthus retroflexus = tested on: Amaranthus retroflexus
Source text: as §1, §2, §3

Abutilon theophrasti = tested on: Abutilon theophrasti
Source text: as §1, §2, §3

Digitaria sanguinalis = tested on: Digitaria sanguinalis
Source text: as §1, §2, §3

Setaria viridis = tested on: Setaria viridis
Source text: as §1, §2, §3

Echinochloa crus-galli = tested on: Echinochloa crus-galli
Source text: as §1, §2, §3

CC1(C(=O)OCC(F)(F)F)CC(c2cc(-c3ncc(C(F)(F)F)cc3Cl)c(F)cc2Cl)=NO1 (stereo not drawn) [Compound 45]
10: activity level (growth control rate) Veronica polita (Veronica polita; 60 g a.i./ha) | activity level (growth control rate) Amaranthus retroflexus (Amaranthus retroflexus; 60 g a.i./ha) | activity level (growth control rate) Abutilon theophrasti (Abutilon theophrasti; 60 g a.i./ha) | activity level (growth control rate) Digitaria sanguinalis (Digitaria sanguinalis; 60 g a.i./ha) | activity level (growth control rate) Setaria viridis (Setaria viridis; 60 g a.i./ha) | activity level (growth control rate) Echinochloa crus-galli (Echinochloa crus-galli; 60 g a.i./ha)

CC(C)=NOC(=O)C1(C)CC(c2cc(-c3ncc(C(F)(F)F)cc3Cl)c(F)cc2Cl)=NO1 (stereo not drawn) [Compound 65]
10: activity level (growth control rate) Veronica polita (Veronica polita; 15 g a.i./ha) | activity level (growth control rate) Amaranthus retroflexus (Amaranthus retroflexus; 15 g a.i./ha) | activity level (growth control rate) Abutilon theophrasti (Abutilon theophrasti; 15 g a.i./ha) | activity level (growth control rate) Digitaria sanguinalis (Digitaria sanguinalis; 15 g a.i./ha) | activity level (growth control rate) Setaria viridis (Setaria viridis; 15 g a.i./ha) | activity level (growth control rate) Echinochloa crus-galli (Echinochloa crus-galli; 15 g a.i./ha)

C/C(=N\OC(=O)C1(C)CC(c2cc(-c3ncc(C(F)(F)F)cc3Cl)c(F)cc2Cl)=NO1)C(F)(F)F (stereo not drawn) [Compound 67]
10: activity level (growth control rate) Veronica polita (Veronica polita; 60 g a.i./ha) | activity level (growth control rate) Amaranthus retroflexus (Amaranthus retroflexus; 60 g a.i./ha) | activity level (growth control rate) Abutilon theophrasti (Abutilon theophrasti; 60 g a.i./ha) | activity level (growth control rate) Digitaria sanguinalis (Digitaria sanguinalis; 60 g a.i./ha) | activity level (growth control rate) Setaria viridis (Setaria viridis; 60 g a.i./ha) | activity level (growth control rate) Echinochloa crus-galli (Echinochloa crus-galli; 60 g a.i./ha)

CC1(C(=O)O/N=C/c2ccco2)CC(c2cc(-c3ncc(C(F)(F)F)cc3Cl)c(F)cc2Cl)=NO1 (stereo not drawn) [Compound 72]
10: activity level (growth control rate) Veronica polita (Veronica polita; 60 g a.i./ha) | activity level (growth control rate) Amaranthus retroflexus (Amaranthus retroflexus; 60 g a.i./ha) | activity level (growth control rate) Abutilon theophrasti (Abutilon theophrasti; 60 g a.i./ha) | activity level (growth control rate) Digitaria sanguinalis (Digitaria sanguinalis; 60 g a.i./ha) | activity level (growth control rate) Setaria viridis (Setaria viridis; 60 g a.i./ha) | activity level (growth control rate) Echinochloa crus-galli (Echinochloa crus-galli; 60 g a.i./ha)

CC(C#N)OC(=O)C1(C)CC(c2cc(-c3ncc(C(F)(F)F)cc3Cl)c(F)cc2Cl)=NO1 (stereo not drawn) [Compound 51]
10: activity level (growth control rate) Veronica polita (Veronica polita; 15 g a.i./ha) | activity level (growth control rate) Amaranthus retroflexus (Amaranthus retroflexus; 15 g a.i./ha) | activity level (growth control rate) Abutilon theophrasti (Abutilon theophrasti; 15 g a.i./ha) | activity level (growth control rate) Digitaria sanguinalis (Digitaria sanguinalis; 15 g a.i./ha) | activity level (growth control rate) Setaria viridis (Setaria viridis; 15 g a.i./ha) | activity level (growth control rate) Echinochloa crus-galli (Echinochloa crus-galli; 15 g a.i./ha)

CC1(C(=O)OCCF)CC(c2cc(-c3ncc(C(F)(F)F)cc3Cl)c(F)cc2Cl)=NO1 (stereo not drawn) [Compound 44]
10: activity level (growth control rate) Veronica polita (Veronica polita; 15 g a.i./ha) | activity level (growth control rate) Amaranthus retroflexus (Amaranthus retroflexus; 15 g a.i./ha) | activity level (growth control rate) Abutilon theophrasti (Abutilon theophrasti; 15 g a.i./ha) | activity level (growth control rate) Digitaria sanguinalis (Digitaria sanguinalis; 15 g a.i./ha) | activity level (growth control rate) Setaria viridis (Setaria viridis; 15 g a.i./ha) | activity level (growth control rate) Echinochloa crus-galli (Echinochloa crus-galli; 15 g a.i./ha)

CSCCOC(=O)C1CC(c2cc(-c3ncc(C(F)(F)F)cc3Cl)c(F)cc2Cl)=NO1 (stereo not drawn) [Compound 105]
10: activity level (growth control rate) Veronica polita (Veronica polita; 60 g a.i./ha) | activity level (growth control rate) Amaranthus retroflexus (Amaranthus retroflexus; 60 g a.i./ha) | activity level (growth control rate) Abutilon theophrasti (Abutilon theophrasti; 60 g a.i./ha) | activity level (growth control rate) Digitaria sanguinalis (Digitaria sanguinalis; 60 g a.i./ha) | activity level (growth control rate) Setaria viridis (Setaria viridis; 60 g a.i./ha) | activity level (growth control rate) Echinochloa crus-galli (Echinochloa crus-galli; 60 g a.i./ha)

C=C(C)c1cnc(-c2cc(C3=NOC(C)(C(=O)ON=C(C)C)C3)c(Cl)cc2F)c(Cl)c1 (stereo not drawn) [Compound 113]
10: activity level (growth control rate) Veronica polita (Veronica polita; 60 g a.i./ha) | activity level (growth control rate) Amaranthus retroflexus (Amaranthus retroflexus; 60 g a.i./ha) | activity level (growth control rate) Abutilon theophrasti (Abutilon theophrasti; 60 g a.i./ha) | activity level (growth control rate) Digitaria sanguinalis (Digitaria sanguinalis; 60 g a.i./ha) | activity level (growth control rate) Setaria viridis (Setaria viridis; 60 g a.i./ha) | activity level (growth control rate) Echinochloa crus-galli (Echinochloa crus-galli; 60 g a.i./ha)

CCSC(=O)C1(C)CC(c2cc(-c3ncc(C(F)(F)F)cc3Cl)c(F)cc2Cl)=NO1 (stereo not drawn) [Compound 78]
10: activity level (growth control rate) Veronica polita (Veronica polita; 15 g a.i./ha) | activity level (growth control rate) Amaranthus retroflexus (Amaranthus retroflexus; 15 g a.i./ha) | activity level (growth control rate) Abutilon theophrasti (Abutilon theophrasti; 15 g a.i./ha) | activity level (growth control rate) Digitaria sanguinalis (Digitaria sanguinalis; 15 g a.i./ha) | activity level (growth control rate) Setaria viridis (Setaria viridis; 15 g a.i./ha) | activity level (growth control rate) Echinochloa crus-galli (Echinochloa crus-galli; 15 g a.i./ha)

CCO/C(C)=N/OC(=O)C1(C)CC(c2cc(-c3ncc(C(F)(F)F)cc3Cl)c(F)cc2Cl)=NO1 (stereo not drawn) [Compound 69]
10: activity level (growth control rate) Veronica polita (Veronica polita; 60 g a.i./ha) | activity level (growth control rate) Amaranthus retroflexus (Amaranthus retroflexus; 60 g a.i./ha) | activity level (growth control rate) Abutilon theophrasti (Abutilon theophrasti; 60 g a.i./ha) | activity level (growth control rate) Digitaria sanguinalis (Digitaria sanguinalis; 60 g a.i./ha) | activity level (growth control rate) Setaria viridis (Setaria viridis; 60 g a.i./ha) | activity level (growth control rate) Echinochloa crus-galli (Echinochloa crus-galli; 60 g a.i./ha)

CSCOC(=O)C1(C)CC(c2cc(-c3ncc(C(F)(F)F)cc3Cl)c(F)cc2Cl)=NO1 (stereo not drawn) [Compound 50]
10: activity level (growth control rate) Veronica polita (Veronica polita; 15 g a.i./ha) | activity level (growth control rate) Amaranthus retroflexus (Amaranthus retroflexus; 15 g a.i./ha) | activity level (growth control rate) Abutilon theophrasti (Abutilon theophrasti; 15 g a.i./ha) | activity level (growth control rate) Digitaria sanguinalis (Digitaria sanguinalis; 15 g a.i./ha) | activity level (growth control rate) Setaria viridis (Setaria viridis; 15 g a.i./ha) | activity level (growth control rate) Echinochloa crus-galli (Echinochloa crus-galli; 15 g a.i./ha)

COC/C(C)=N/OC(=O)C1(C)CC(c2cc(-c3ncc(C(F)(F)F)cc3Cl)c(F)cc2Cl)=NO1 (stereo not drawn) [Compound 68]
10: activity level (growth control rate) Veronica polita (Veronica polita; 60 g a.i./ha) | activity level (growth control rate) Amaranthus retroflexus (Amaranthus retroflexus; 60 g a.i./ha) | activity level (growth control rate) Abutilon theophrasti (Abutilon theophrasti; 60 g a.i./ha) | activity level (growth control rate) Digitaria sanguinalis (Digitaria sanguinalis; 60 g a.i./ha) | activity level (growth control rate) Setaria viridis (Setaria viridis; 60 g a.i./ha) | activity level (growth control rate) Echinochloa crus-galli (Echinochloa crus-galli; 60 g a.i./ha)

CC1(C(=O)OC2CCCC2)CC(c2cc(-c3ncc(C(F)(F)F)cc3Cl)c(F)cc2Cl)=NO1 (stereo not drawn) [Compound 43]
10: activity level (growth control rate) Veronica polita (Veronica polita; 15 g a.i./ha) | activity level (growth control rate) Amaranthus retroflexus (Amaranthus retroflexus; 15 g a.i./ha) | activity level (growth control rate) Abutilon theophrasti (Abutilon theophrasti; 15 g a.i./ha) | activity level (growth control rate) Digitaria sanguinalis (Digitaria sanguinalis; 15 g a.i./ha) | activity level (growth control rate) Setaria viridis (Setaria viridis; 15 g a.i./ha) | activity level (growth control rate) Echinochloa crus-galli (Echinochloa crus-galli; 15 g a.i./ha)
